According to the supplement of paper PMC10307832:

Assays:
Assay in all cases: relative viability (nuclei count vs DMSO), 5 days (fraction); higher = more cells survive
[1] = compound: CC(O)(CS(=O)(=O)c1ccc(F)cc1)C(=O)Nc1ccc(C#N)c(C(F)(F)F)c1 [Bicalutamide] + O=C(CCCCCCC(=O)Nc1ccccc1)NO [Vorinostat] (partner 1 µM)
How it was run: (§1)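 The day after seeding in 1536-well plates, lung cancer cell lines were treated by pin tool with a single drug, or with a fixed anchor-drug dose together with five library-drug doses (not always all listed) in √10 steps. After 5 days, a combined fix-and-stain solution (final 0.05% Triton X-100, 1% formaldehyde, 1 ug/ml Hoechst) was added. Nuclei counted on 4× images gave relative viability as treated counts over vehicle counts, reported as the median of duplicate plates.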

[2] = compound: C(C(=O)C(=O)O)Br [Bromopyruvate] + O=C(c1cc(Cc2n[nH]c(=O)c3ccccc23)ccc1F)N1CCN(C(=O)C2CC2)CC1 [Olaparib] (partner 8 µM)
How it was run: as §1

[3] = compound: C(C(=O)C(=O)O)Br [Bromopyruvate] + Nc1nc2[nH]cc(CCc3ccc(C(=O)N[C@@H](CCC(=O)O)C(=O)O)cc3)c2c(=O)[nH]1 [Pemetrexed] (partner 0.2 µM)
How it was run: as §1

[4] = compound: CC(O)(CS(=O)(=O)c1ccc(F)cc1)C(=O)Nc1ccc(C#N)c(C(F)(F)F)c1 [Bicalutamide] + CS(=O)(=O)N1CCN(Cc2cc3nc(-c4cccc5[nH]ncc45)nc(N4CCOCC4)c3s2)CC1 [Pictilisib] (partner 1 µM)
How it was run: as §1

Cell Line	relative viability ([1]; first compound 0.08 µM)	relative viability ([1]; first compound 0.253 µM)	relative viability ([1]; first compound 0.8 µM)	relative viability ([1]; first compound 2.53 µM)	relative viability ([2]; first compound 1 µM)	relative viability ([2]; first compound 3.162 µM)	relative viability ([2]; first compound 10 µM)	relative viability ([2]; first compound 31.62 µM)	relative viability ([2]; first compound 100 µM)	relative viability ([3]; first compound 1 µM)	relative viability ([3]; first compound 3.162 µM)	relative viability ([3]; first compound 10 µM)	relative viability ([3]; first compound 31.62 µM)	relative viability ([3]; first compound 100 µM)	relative viability ([4]; first compound 0.08 µM)	relative viability ([4]; first compound 0.8 µM)	relative viability ([4]; first compound 2.53 µM)	relative viability ([4]; first compound 0.253 µM)
NCI-H661	0.768	0.805	0.771	0.806	0.734	0.7	0.799	0.731	0.65	0.905	0.944	0.985	0.889	0.907	0.433	0.494	0.407	
NCI-H838	0.72	0.707	0.749	0.564	0.758	0.757	0.86	0.781	0.686	0.244	0.274	0.242	0.232	0.245	0.589	0.524	0.324	0.415
NCI-H1355	0.679	0.596	0.691	0.609	0.738	0.762	0.681	0.764	0.776	1.08	1.12	1.14	1.08	1.08	0.413	0.441	0.485	0.316
NCI-H1395	0.882	0.666	0.792	0.624	0.447	0.452	0.476	0.52	0.443	0.978	0.917	0.884	0.847	0.928	0.596	0.687	0.456	0.519
NCI-H1437	0.839	0.832	0.875	0.859	0.647	0.664	0.656	0.62	0.627	0.307	0.315	0.339	0.329	0.337	0.475	0.419	0.451	0.381
NCI-H1650	0.685	0.586	0.581	0.611	0.82	0.734	0.723	0.71	0.567	0.39	0.435	0.37	0.406	0.266	0.701	0.825	0.597	0.502
NCI-H1651	0.577	0.514	0.662	0.567	0.188	0.182	0.187	0.207	0.167	0.551	0.583	0.582	0.527	0.579	0.618	0.686	0.471	0.429
